From US11813270B2, “Nitric oxide-releasing antibacterial compounds, formulations, and methods pertaining thereto” (KNOW BIO, LLC, priority 2020, dated 2023)

Key:
Mycobacterium abscessus = test: MIC/MBC assay (CLSI method); assay type: cell-based; conditions: unit not given
Pseudomonas aeruginosa = test: MIC/MBC assay (CLSI method); assay type: cell-based; conditions: combined composition of β-cyclodextrin and MTDD

Row | NO Load (unit not given) | MIC (Mycobacterium abscessus; M. abscessus N0010, clinical) | MIC (Mycobacterium abscessus; M. abscessus N0016, clinical) | MIC (Mycobacterium abscessus; M. abscessus N0017, clinical) | MIC (Mycobacterium abscessus; M. abscessus N0018, clinical) | MIC (Mycobacterium abscessus; M. abscessus N0019, clinical) | MIC (Mycobacterium abscessus; M. abscessus N0020, clinical) | MIC (Mycobacterium abscessus; M. abscessus N0046) | SMILES | MBC (Mycobacterium abscessus; M. abscessus N0010, clinical) | MBC (Mycobacterium abscessus; M. abscessus N0016, clinical) | MBC (Mycobacterium abscessus; M. abscessus N0017, clinical) | MBC (Mycobacterium abscessus; M. abscessus N0018, clinical) | MBC (Mycobacterium abscessus; M. abscessus N0019, clinical) | MBC (Mycobacterium abscessus; M. abscessus N0020, clinical) | MBC (Mycobacterium abscessus; M. abscessus N0046) | MIC against P. aeruginosa (Pseudomonas aeruginosa) [µg/mL] | NO-loading (combined composition of β-cyclodextrin and MTDD) [µmol/mg]
1 | 6.9 | 1 | 2 | 2 | 1 | 2 | 1 | 2 | C[C@@H]1CCC[C@H](C)N1[N+]([O-])=N[O-].[Na+] [cis-DMP/NO] | 4 | 4 | 4 | 4 | 4 | 2 | 4 |  | 
2 |  |  |  |  |  |  |  |  | OC[C@H]1O[C@@H]2O[C@H]3[C@H](O)[C@@H](O)[C@@H](O[C@H]4[C@H](O)[C@@H](O)[C@@H](O[C@H]5[C@H](O)[C@@H](O)[C@@H](O[C@H]6[C@H](O)[C@@H](O)[C@@H](O[C@H]7[C@H](O)[C@@H](O)[C@@H](O[C@H]8[C@H](O)[C@@H](O)[C@@H](O[C@H]1[C@H](O)[C@H]2O)O[C@@H]8CO)O[C@@H]7CO)O[C@@H]6CO)O[C@@H]5CO)O[C@@H]4CO)O[C@@H]3CO [0% MTDD, β-cyclodextrin] |  |  |  |  |  |  |  | >6250 | 0.0
